Measurements published in patent publication US8785147B2, “L-threonine analysis method and L-threonine dehydrogenase” (Toyama Prefecture, priority 2010, dated 2014).
Like-named read-outs stand apart in the source and are kept apart here.

Tests used:
[1] = test system: TDH derived from Cupriavidus necator NBRC 102504 (SEQ ID NO: 1) (CnTDH); assay: Substrate specificity of TDH, standard assay; type: biochemical
Procedure: L-threonine oxidation activity was determined by measuring coenzyme NAD^+ reduction at 30° C. and 340 nm. The reaction composition consisted of a total volume of 1 mL and contained L-threonine (final concentration 10 mM), NAD^+ (final concentration 2.5 mM), and glycine-KCl—KOH buffer (100 mM, pH 10.0). The measurement of activity began with the addition of the enzyme. One unit (U) of enzymatic activity was defined as the amount of enzyme producing 1 μmol of NADH per minute under standard conditions.
TDH was examined using substrates in the form of various L-amino acids, amino alcohols, and alcohols. […]

[2] = molecular target: PfTDH: TDH from Pyrococcus furiosus (Pyrococcus furiosus, UniProt Q8U259); settings: cited from earlier work
Chain of PfTDH: TDH from Pyrococcus furiosus (Q8U259 whole entry): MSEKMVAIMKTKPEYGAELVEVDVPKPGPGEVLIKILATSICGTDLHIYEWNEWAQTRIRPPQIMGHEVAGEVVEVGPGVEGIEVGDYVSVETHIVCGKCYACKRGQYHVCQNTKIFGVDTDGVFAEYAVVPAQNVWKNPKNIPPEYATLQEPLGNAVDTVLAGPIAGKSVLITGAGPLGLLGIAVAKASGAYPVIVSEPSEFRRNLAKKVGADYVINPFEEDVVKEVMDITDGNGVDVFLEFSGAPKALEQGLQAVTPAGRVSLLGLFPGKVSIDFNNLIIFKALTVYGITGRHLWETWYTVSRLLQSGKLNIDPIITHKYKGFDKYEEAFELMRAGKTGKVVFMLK

[3] = test system: CyTDH: TDH from Cytophaga sp. KUC-1; settings: cited from earlier work
[4] = test system: CsTDH: TDH from Clostridium sticklandii; settings: cited from earlier work
[5] = test system: Purified TDH derived from Cupriavidus necator NBRC 102504; assay: Effect of metal ions and inhibitors on TDH activity (residual activity); type: biochemical; settings: for Relative activity (residual TDH activity): metal ions final concentration 1 mM, relative to enzyme without additives
[6] = substrate concentration 10 mM, standard assay conditions, L-threonine = 100
[7] = substrate specificity, L-threonine = 100
[8] = inhibitors final concentration 10 mM, 30° C. for 1 hour, None = 100
[9] = inhibitors final concentration 10 mM, 30° C. for 1 hour

CCC(N)CO (racemic) [DL-2-amino1-butanol]
Relative activity (%) CnTDH [1, 6]: 0%

C[C@@H](O)[C@H](N)C(=O)O (racemic) [DL-threonine]
Relative activity (%) CnTDH [1, 6]: 64%

CCC(O)CO (stereo not shown) [1,2-Butanediol]
Relative activity (%) PfTDH [2, 7]: 52% | Relative activity (%) CnTDH [1, 6]: 0%

CC(O)CCO (stereo not shown) [1,3-Butanediol]
Relative activity (%) PfTDH [2, 7]: 0% | Relative activity (%) CnTDH [1, 6]: 0%

CCCCO [1-Butanol]
Relative activity (%) PfTDH [2]: 0% | Relative activity (%) CnTDH [1, 6]: 0%

CC(O)C(C)O (stereo not shown) [2,3-Butanediol]
Relative activity (%) PfTDH [2, 7]: 94% | Relative activity (%) CnTDH [1, 6]: 0%

CCC(C)O (stereo not shown) [2-Butanol]
Relative activity (%) PfTDH [2]: 0% | Relative activity (%) CyTDH [3, 7]: 0% | Relative activity (%) CnTDH [1, 6]: 0%

CC(=O)C(C)O (stereo not shown) [Acetoin]
Relative activity (%) PfTDH [2, 7]: 38% | Relative activity (%) CsTDH [4, 7]: 0% | Relative activity (%) CnTDH [1, 6]: 0%

O=[N+]([O-])[O-].[Ag+] [AgNO3]
Relative activity (residual TDH activity) ([5]; 30° C. for 1 hour): 100%

[Cl][Al]([Cl])[Cl] [AlCl3]
Relative activity (residual TDH activity) ([5]; 30° C. for 1 hour): 118%

[Ba+2].[Cl-].[Cl-] [BaCl2]
Relative activity (residual TDH activity) ([5]; 30° C. for 1 hour): 113%

[Ca+2].[Cl-].[Cl-] [CaCl2]
Relative activity (residual TDH activity) ([5]; 30° C. for 1 hour): 109%

[Cl][Cr]([Cl])[Cl] [CrCl3]
Relative activity (residual TDH activity) ([5]; 30° C. for 1 hour): 110%

[Cl-].[Cs+] [CsCl]
Relative activity (residual TDH activity) ([5]; 30° C. for 1 hour): 117%

[Cl][Cu][Cl] [CuCl2]
Relative activity (residual TDH activity) ([5]; 30° C. for 1 hour): 117%

O=S(=O)([O-])[O-].[Cu+2] [CuSO4]
Relative activity (residual TDH activity) ([5]; 30° C. for 1 hour): 115%

C[C@@H](O)[C@@H](N)C(=O)O [D-allothreonine]
Relative activity (%) CsTDH [4, 7]: 0% | Relative activity (%) CyTDH [3, 7]: 0% | Relative activity (%) CnTDH [1, 6]: 0%

N[C@H](CO)C(=O)O [D-serine]
Relative activity (%) CnTDH [1, 6]: 0%

CCOC(=O)OC(=O)OCC [DEPC]
Relative activity (%) (residual TDH activity) [5, 8]: 92%

O[C@@H](CS)[C@@H](O)CS [DTT]
Inhibition of TDH activity (in words) [5, 9]: Nor did the reducing agents β-mercaptoethanol and DTT inhibit enzymatic activity | Relative activity (%) (residual TDH activity) [5, 8]: 125%

O=C(O)CN(CCN(CC(=O)O)CC(=O)O)CC(=O)O [EDTA]
Inhibition of TDH activity (in words) [5, 9]: not inhibited | Relative activity (%) (residual TDH activity) [5, 8]: 103%

O=C(O)CN(CCOCCOCCN(CC(=O)O)CC(=O)O)CC(=O)O [EGTA]
Inhibition of TDH activity (in words) [5, 9]: not inhibited | Relative activity (%) (residual TDH activity) [5, 8]: 94%

[Cl][Fe][Cl] [FeCl2]
Relative activity (residual TDH activity) ([5]; 30° C. for 1 hour): 68%

[Cl][Fe]([Cl])[Cl] [FeCl3]
Relative activity (residual TDH activity) ([5]; 30° C. for 1 hour): 27%

OCC(O)CO [Glycerol]
Relative activity (%) PfTDH [2, 7]: 4% | Relative activity (%) CnTDH [1, 6]: 0%

NCC(=O)O [Glycine]
Relative activity (%) PfTDH [2]: 0% | Relative activity (%) CsTDH [4, 7]: 0% | Relative activity (%) CyTDH [3, 7]: 0% | Relative activity (%) CnTDH [1, 6]: 0%

[Cl][Hg][Cl] [HgCl2]
Relative activity (%) (residual TDH activity) [5]: 23%

NC(=O)CI [Iodoacetamide]
Inhibition of TDH activity (in words) [5, 9]: inhibited | Relative activity (%) (residual TDH activity) [5, 8]: 0.8%

O=C(O)CI [Iodoacetic acid]
Relative activity (%) (residual TDH activity) [5]: 48%

C[C@H](N)C(=O)O [L-alanine]
Relative activity (%) PfTDH [2, 7]: 0% | Relative activity (%) CsTDH [4, 7]: 0% | Relative activity (%) CyTDH [3, 7]: 0% | Relative activity (%) CnTDH [1, 6]: 0%

N=C(N)NCCC[C@H](N)C(=O)O [L-arginine]
Relative activity (%) PfTDH [2]: 0% | Relative activity (%) CsTDH [4]: 0% | Relative activity (%) CyTDH [3]: 0% | Relative activity (%) CnTDH [1]: 0%

NC(=O)C[C@H](N)C(=O)O [L-asparagine]
Relative activity (%) PfTDH [2, 7]: 0% | Relative activity (%) CsTDH [4, 7]: 0% | Relative activity (%) CyTDH [3, 7]: 0% | Relative activity (%) CnTDH [1, 6]: 0%

N[C@@H](CC(=O)O)C(=O)O [L-aspartic acid]
Relative activity (%) PfTDH [2, 7]: 0% | Relative activity (%) CsTDH [4, 7]: 0% | Relative activity (%) CyTDH [3, 7]: 0% | Relative activity (%) CnTDH [1, 6]: 0%

N[C@@H](CCC(=O)O)C(=O)O [L-glutamic acid]
Relative activity (%) PfTDH [2, 7]: 0% | Relative activity (%) CsTDH [4, 7]: 0% | Relative activity (%) CyTDH [3, 7]: 0% | Relative activity (%) CnTDH [1, 6]: 0%
